# Like-named read-outs stand apart in the source and are kept apart here.
# Experiments:
# [1] = tested on: IL-1β cytokine output from THP-1s; experiment: THP-1 AlphaLISA IL-1β cytokine inhibition assay; type: cell-based
# How it was run: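 THP-1 cells differentiated with PMA for 72 h, pre-incubated with compound 30 min, then LPS-primed 24 h and Nigericin-stimulated 1 h (37° C./5% CO2). Supernatant IL-1β measured by AlphaLISA; percentage inhibition normalised to +LPS (high) and −LPS (low) plate controls.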
# [2] = tested on: human cryopreserved hepatocytes; experiment: Hepatocyte stability assay, human; type: in vitro ADME
# How it was run: (§1)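 Cells and buffer-only plates are preincubated 10 min at 37° C; 10 μM test compound is then added to hepatocytes (0.5×10^6 cells/mL) and sampled to 60 min. Aliquots are crashed into acetonitrile, spun, and measured by LC-MS/MS to calculate intrinsic clearance from the decline of parent.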
# [3] = Hepatocyte stability assay, human; type: in vitro ADME; settings: human, hepatocytes; for hepatocyte CLint at 10 μM: Hepatocyte stability Clint; for half-life at 10 μM: Hepatocyte stability T½
# How it was run: as §1
# [4] = tested on: NRF2 (nuclear factor erythroid 2-related factor 2); experiment: NRF2 +/-GSH activation assay (DiscoverX PathHunter NRF2 translocation kit, U2OS cells); type: cell-based
# How it was run: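 U2OS PathHunter eXpress cells, 24 h post-plating, treated with compound ±GSH (+GSH arm: 30 min compound–GSH pre-incubation, 6 mM working GSH), then 6 h at 37 °C. NRF2 nuclear translocation read by enzyme-fragment-complementation chemiluminescence; % activation normalised to DMF high and untreated low controls.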
# [5] = tested on: IL-6 cytokine output from THP-1s; experiment: THP-1 AlphaLISA IL-6 cytokine inhibition assay; type: cell-based
# How it was run: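 THP-1 cells differentiated with PMA for 72 h, then pre-incubated with compound 30 min, stimulated with LPS 24 h, then Nigericin 1 h, all at 37° C. Supernatant IL-6 measured by AlphaLISA. Percentage inhibition normalized to +/− LPS plate controls.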
# [6] = tested on: mouse cryopreserved hepatocytes; experiment: Hepatocyte stability assay, mouse; type: in vitro ADME
# How it was run: as §1
# [7] = Hepatocyte stability assay, mouse; type: in vitro ADME; settings: mouse, hepatocytes; for hepatocyte CLint at 10 μM: Hepatocyte stability Clint; for half-life at 10 μM: Hepatocyte stability T½
# How it was run: as §1
# [8] = Homo sapiens, THP-1, differentiated THP-1 cells, LPS then nigericin
# [9] = Homo sapiens, THP-1, differentiated THP-1 cells, data from repeated experiments
# [10] = +GSH, normalised to DMF high control
# [11] = −GSH, normalised to DMF high control
# [12] = differentiated THP-1 cells, LPS then nigericin
# [13] = Human hepatocytes, compound 10 μM, 0.5×10^6 cells/mL, 60 minutes (a n=2, c n=4)
# [14] = Mouse hepatocytes, compound 10 μM, 0.5×10^6 cells/mL, 60 minutes (a n=2, b n=3)
Structure (SMILES),"IC50 [1, 8]",hepatocyte CLint at 10 μM [3],half-life at 10 μM [3],"NRF2 activation +GSH Emax [4, 10]","NRF2 activation −GSH Emax [4, 11]","IC50 [5, 8]",hepatocyte CLint at 10 μM [7],half-life at 10 μM [7],other results
"C=C(Cc1nc(CCCCCCCC)no1)C(=O)O [Example 1, 2-((3-octyl-1,2,4-oxadiazol-5-yl)methyl)acrylic acid]",4.9 µM,115 µL/min/1e6 cells,12 min,187%,243%,3.7 µM,118 µL/min/1e6 cells,12 min,"IC50 ([1]; Homo sapiens, THP-1, Table 3, head to head comparison of exo vs endo double bond compounds): 4.9 µM; IC50 ([1]; Homo sapiens, THP-1, Table 3, data from repeated experiment): 4.7 µM; IC50 [1, 9]: 4.7 µM; reduction of cytokine release versus comparators, in words ([1]; compared with 4-octyl itaconate and 2-(2-chlorobenzyl)acrylic acid): reduced cytokine release more effectively than 4-octyl itaconate and 2-(2-chlorobenzyl)acrylic acid; stability in human cryopreserved hepatocytes, in words ([2]; human, hepatocytes): improved stability; NRF2 activation, result in words ([4]; −GSH and/or +GSH): activated NRF2 more potently and with higher efficacy than 4-octyl itaconate and 2-(2-chlorobenzyl)acrylic acid; −GSH Emax ([4]; −GSH, normalised to DMF high control, Table 5 exo vs endo comparison): 243%; IC50 [5, 9]: 4 µM; stability in mouse cryopreserved hepatocytes, in words ([6]; mouse, hepatocytes): improved stability"
"C=C(CC(=O)OCCCCCCCC)C(=O)O [4-octyl itaconate, 4-Octyl itaconate, reference compound]",,,,148%,165%,,,,"IC50 [1, 12]: 37.8 µM; Hepatocyte stability Clint [2, 13]: 401 μL min^−1 10^−6 cells; Hepatocyte stability T½ [2, 13]: 4 min; IC50 [5, 12]: 19.1 µM; Hepatocyte stability Clint [6, 14]: 351 μL min^−1 10^−6 cells; Hepatocyte stability T½ [6, 14]: 4 min"
"C=C(Cc1nc(-c2ccc(CCCCC(F)(F)F)cc2)no1)C(=O)O [Example 75, 2-((3-(4-(5,5,5-trifluoropentyl)phenyl)-1,2,4-oxadiazol-5-yl)methyl)acrylic acid]",13.7 µM,80 µL/min/1e6 cells,15 min,188%,263%,3.1 µM,480 µL/min/1e6 cells,4 min,"EC50 ([4]; +GSH, 30 minute compound-GSH pre-incubation, read-out: NRF2 activation +GSH EC50): 7.1 µM; EC50 ([4]; −GSH, U2OS PathHunter cells, 6 hours compound treatment, read-out: NRF2 activation −GSH EC50): 4.8 µM"
